Measured values as given in patent US20180320217A1, “METHODS FOR SAMPLING AND MEASURING ORAL LAVAGE PROTEINS” (The Procter & Gamble Company, priority 2017, published 2018).
Where “and” joins values, the source holds several entries; their conditions need not be identical. Equal values may be shown once. Entries after “also recorded” stand apart in the source; their conditions may differ.

What was measured:
oral lavage [1] = assay: Formation of formazan dyes: oral lavage and 1-Methoxy PMS, absence of malate (TABLE 19); type: biochemical, human
diaphorase [2] = assay: Formation of formazan dyes: NADH and diaphorase, absence of malate (TABLE 7); type: biochemical, Clostridium kluyveri; settings: NADH and diaphorase, absence of malate
[3] = test system: Malate dehydrogenase and diaphorase; assay: Formation of formazan dyes: Malate dehydrogenase, diaphorase and malate (TABLE 10); type: biochemical, pig heart
Malate dehydrogenase = target: T1, Malate dehydrogenase (Sus scrofa, UniProt P00346); assay: Formation of formazan dyes: Malate dehydrogenase and 1-Methoxy PMS, absence of malate (TABLE 17); type: biochemical, pig heart; parameters: L-malate dehydrogenase (pig heart); purchased Sigma-Aldrich 10127248001 / 10127914001
T1 sequence (P00346 25-338): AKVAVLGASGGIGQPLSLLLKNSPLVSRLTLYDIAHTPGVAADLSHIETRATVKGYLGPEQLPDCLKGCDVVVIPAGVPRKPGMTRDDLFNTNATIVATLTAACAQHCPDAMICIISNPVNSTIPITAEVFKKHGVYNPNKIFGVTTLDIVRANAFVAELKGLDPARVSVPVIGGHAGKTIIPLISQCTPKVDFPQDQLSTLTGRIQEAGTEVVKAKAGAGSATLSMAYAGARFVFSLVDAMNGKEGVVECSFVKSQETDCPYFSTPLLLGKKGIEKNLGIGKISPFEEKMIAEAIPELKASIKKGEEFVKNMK

[4] = Formation of formazan dyes: NADH and 1-methoxy PMS, absence of malate (TABLE 15); type: biochemical
diaphorase [5] = assay: Formation of formazan dyes: only diaphorase and malate (TABLE 14); type: biochemical, Clostridium kluyveri; settings: mean of three experiments
oral lavage [6] = assay: Formation of formazan dyes: oral lavage and diaphorase, not malate (TABLE 11); type: biochemical, human
oral lavage [7] = assay: Formation of formazan dyes: oral lavage, malate and diaphorase (TABLE 12); type: biochemical, human; settings: oral lavage, malate and diaphorase
diaphorase [8] = assay: Formation of formazan dyes: NADH, diaphorase and malate (TABLE 8); type: biochemical, Clostridium kluyveri; settings: NADH, diaphorase and malate
[9] = Formation of formazan dyes: NADH, malate and 1-methoxy PMS (TABLE 16); type: biochemical
[10] = Formation of formazan dyes: control buffer and 1-Methoxy PMS, absence of malate (TABLE 21); type: biochemical
[11] = test system: Malate dehydrogenase and diaphorase; assay: Formation of formazan dyes: Malate dehydrogenase and diaphorase, absence of malate (TABLE 9); type: biochemical, pig heart
diaphorase [12] = assay: Formation of formazan dyes: only diaphorase, not malate (TABLE 13); type: biochemical, Clostridium kluyveri; settings: mean of three experiments
[13] = Formation of formazan dyes: control buffer, malate and 1-Methoxy PMS (TABLE 22); type: biochemical

2-Benzothiazoryl-3-(4-carboxy-2-methoxyphenyl)-5-[4-(2-sulfoethylcarbamoyl)phenyl]-2H-tetrazolium [WST-4]
Absorbance, formation of formazan dyes (Means) (oral lavage [1]): 0.78 and 1.07 and 1.15 and 1.22 | Formation of formazan dyes, absorbance, Means 0 h (diaphorase [2]; 0 h): 1.96 | Formation of formazan dyes, absorbance, Means 1 h (diaphorase [2]; 1 h): 2.01 | Formation of formazan dyes, absorbance, Means 2 h (diaphorase [2]; 2 h): 2.04 | Formation of formazan dyes, absorbance, Means 3 h (diaphorase [2]; 3 h): 2.08 | Formation of formazan dyes, absorbance, Means 4 h (diaphorase [2]; 4 h): 2.20 | Formation of formazan dyes, absorbance, Means 6 h (diaphorase [2]; 6 h): 2.25 | Formation of formazan dyes, absorbance, Means 8 h (diaphorase [2]; 8 h): 2.29 | Formation of formazan dyes, absorbance, Means 10 h (diaphorase [2]; 10 h): 2.30 | Formation of formazan dyes, absorbance, Means 12 h (diaphorase [2]; 12 h): 2.32 | Formation of formazan dyes, absorbance, Means 0 h ([3]; Malate dehydrogenase, diaphorase and malate, 0 h): 0.51 | Formation of formazan dyes, absorbance, Means 1 h ([3]; Malate dehydrogenase, diaphorase and malate, 1 h): 0.81 | Formation of formazan dyes, absorbance, Means 2 h ([3]; Malate dehydrogenase, diaphorase and malate, 2 h): 0.99 | Formation of formazan dyes, absorbance, Means 3 h ([3]; Malate dehydrogenase, diaphorase and malate, 3 h): 1.13 | Formation of formazan dyes, absorbance, Means 4 h ([3]; Malate dehydrogenase, diaphorase and malate, 4 h): 1.25 | Formation of formazan dyes, absorbance, Means 6 h ([3]; Malate dehydrogenase, diaphorase and malate, 6 h): 1.43 | Formation of formazan dyes, absorbance, Means 8 h ([3]; Malate dehydrogenase, diaphorase and malate, 8 h): 1.57 | Formation of formazan dyes, absorbance, Means 10 h ([3]; Malate dehydrogenase, diaphorase and malate, 10 h): 1.68 | Formation of formazan dyes, absorbance, Means 12 h ([3]; Malate dehydrogenase, diaphorase and malate, 12 h): 1.75 | conversion to reduced formazan dyes ([3]; malate dehydrogenase, diaphorase and malate (TABLE 10)): converted to reduced formazan dyes in a time-dependent fashion; also recorded: able to catalyze the reduction | Absorbance, formation of formazan dyes (Means) (Malate dehydrogenase): 0.27 and 0.29 and 0.31 and 0.38 | reduction by malate dehydrogenase alone (Malate dehydrogenase): did not catalyze the reduction | Absorbance, formation of formazan dyes (Means) [4]: 1.52 and 1.57 and 1.64 | Absorbance, formation of formazan dyes (Means) (diaphorase [5]; 0 h): 0.08 | Absorbance, formation of formazan dyes (Means) (diaphorase [5]; 1 h): 0.10 | Absorbance, formation of formazan dyes (Means) (diaphorase [5]; 2 h): 0.12 | Absorbance, formation of formazan dyes (Means) (diaphorase [5]; 3 h): 0.14 | Absorbance, formation of formazan dyes (Means) (diaphorase [5]; 4 h): 0.16 | Absorbance, formation of formazan dyes (Means) (diaphorase [5]; 6 h): 0.19 | Absorbance, formation of formazan dyes (Means) (diaphorase [5]; 8 h): 0.23 | Absorbance, formation of formazan dyes (Means) (diaphorase [5]; 10 h): 0.26 | Absorbance, formation of formazan dyes (Means) (diaphorase [5]; 12 h): 0.27 | Formation of formazan dyes, absorbance, Means 0 h (oral lavage [6]; oral lavage and diaphorase, not malate, 0 h): 0.55 | Formation of formazan dyes, absorbance, Means 1 h (oral lavage [6]; oral lavage and diaphorase, not malate, 1 h): 0.74 | Formation of formazan dyes, absorbance, Means 2 h (oral lavage [6]; oral lavage and diaphorase, not malate, 2 h): 0.76 | Formation of formazan dyes, absorbance, Means 3 h (oral lavage [6]; oral lavage and diaphorase, not malate, 3 h): 0.80 | Formation of formazan dyes, absorbance, Means 4 h (oral lavage [6]; oral lavage and diaphorase, not malate, 4 h): 0.78 | Formation of formazan dyes, absorbance, Means 6 h (oral lavage [6]; oral lavage and diaphorase, not malate, 6 h): 0.88 | Formation of formazan dyes, absorbance, Means 8 h (oral lavage [6]; oral lavage and diaphorase, not malate, 8 h): 0.90 | Formation of formazan dyes, absorbance, Means 10 h (oral lavage [6]; oral lavage and diaphorase, not malate, 10 h): 0.87 | Formation of formazan dyes, absorbance, Means 12 h (oral lavage [6]; oral lavage and diaphorase, not malate, 12 h): 0.93 | reduction to formazan dyes by pooled oral lavage (oral lavage [6]; pooled oral lavage of high bleeder group, diaphorase, no added malate (TABLE 11)): partially reduced to formazan dyes | Formation of formazan dyes, absorbance, Means 0 h (oral lavage [7]; 0 h): 0.44 | Formation of formazan dyes, absorbance, Means 1 h (oral lavage [7]; 1 h): 0.56 | Formation of formazan dyes, absorbance, Means 2 h (oral lavage [7]; 2 h): 0.63 | Formation of formazan dyes, absorbance, Means 3 h (oral lavage [7]; 3 h): 0.67 | Formation of formazan dyes, absorbance, Means 4 h (oral lavage [7]; 4 h): 0.77 | Formation of formazan dyes, absorbance, Means 6 h (oral lavage [7]; 6 h): 0.83 | Formation of formazan dyes, absorbance, Means 8 h (oral lavage [7]; 8 h): 0.89 | Formation of formazan dyes, absorbance, Means 10 h (oral lavage [7]; 10 h): 0.96 | Formation of formazan dyes, absorbance, Means 12 h (oral lavage [7]; 12 h): 0.95 | Formation of formazan dyes, absorbance, Means 0 h (diaphorase [8]; 0 h): 1.92 | Formation of formazan dyes, absorbance, Means 1 h (diaphorase [8]; 1 h): 1.91 | Formation of formazan dyes, absorbance, Means 2 h (diaphorase [8]; 2 h): 1.91 | Formation of formazan dyes, absorbance, Means 3 h (diaphorase [8]; 3 h): 1.89 | Formation of formazan dyes, absorbance, Means 4 h (diaphorase [8]; 4 h): 1.97 | Formation of formazan dyes, absorbance, Means 6 h (diaphorase [8]; 6 h): 1.94 | Formation of formazan dyes, absorbance, Means 8 h (diaphorase [8]; 8 h): 1.92 | Formation of formazan dyes, absorbance, Means 10 h (diaphorase [8]; 10 h): 1.88 | Formation of formazan dyes, absorbance, Means 12 h (diaphorase [8]; 12 h): 1.83 | Absorbance, formation of formazan dyes (Means) [9]: 1.32 and 1.31 and 1.29 and 1.30 | Absorbance, formation of formazan dyes (Means) [10]: 0.30 and 0.34 and 0.43 and 0.44 | Formation of formazan dyes, absorbance, Means 0 h ([11]; Malate dehydrogenase and diaphorase, absence of malate, 0 h): 0.51 | Formation of formazan dyes, absorbance, Means 1 h ([11]; Malate dehydrogenase and diaphorase, absence of malate, 1 h): 0.83 | Formation of formazan dyes, absorbance, Means 2 h ([11]; Malate dehydrogenase and diaphorase, absence of malate, 2 h): 0.99 | Formation of formazan dyes, absorbance, Means 3 h ([11]; Malate dehydrogenase and diaphorase, absence of malate, 3 h): 1.06 | Formation of formazan dyes, absorbance, Means 4 h ([11]; Malate dehydrogenase and diaphorase, absence of malate, 4 h): 1.17 | Formation of formazan dyes, absorbance, Means 6 h ([11]; Malate dehydrogenase and diaphorase, absence of malate, 6 h): 1.24 | Formation of formazan dyes, absorbance, Means 8 h ([11]; Malate dehydrogenase and diaphorase, absence of malate, 8 h): 1.35 | Formation of formazan dyes, absorbance, Means 10 h ([11]; Malate dehydrogenase and diaphorase, absence of malate, 10 h): 1.44 | Formation of formazan dyes, absorbance, Means 12 h ([11]; Malate dehydrogenase and diaphorase, absence of malate, 12 h): 1.47 | reduction of tetrazolium dye in the absence of substrate malate ([11]; malate dehydrogenase and diaphorase (TABLE 9)): partially reduced | Absorbance, formation of formazan dyes (Means) (diaphorase [12]; 0 h): 0.22 | Absorbance, formation of formazan dyes (Means) (diaphorase [12]; 1 h): 0.35 | Absorbance, formation of formazan dyes (Means) (diaphorase [12]; 2 h): 0.40 | Absorbance, formation of formazan dyes (Means) (diaphorase [12]; 3 h): 0.40 | Absorbance, formation of formazan dyes (Means) (diaphorase [12]; 4 h): 0.38 | Absorbance, formation of formazan dyes (Means) (diaphorase [12]; 6 h): 0.30 | Absorbance, formation of formazan dyes (Means) (diaphorase [12]; 8 h): 0.32 | Absorbance, formation of formazan dyes (Means) (diaphorase [12]; 10 h): 0.36 | Absorbance, formation of formazan dyes (Means) (diaphorase [12]; 12 h): 0.39 | Means absorbance 0 h [13]: 0.13 | Means absorbance 1 h [13]: 0.13 | Means absorbance 2 h [13]: 0.13 | Means absorbance 3 h [13]: 0.15
